Experimental data taken from patent US8415383B2, “Substituted benzamidines as antibacterial agents” (Biota Scientific Management Pty Ltd, priority 2007, dated 2013).
Values after ≈ are worked out from the molar mass of the structure shown.

Test system: not given
Assay: not given
Conditions: not given
With `N/C(=N\O)c1c(F)ccc(OCc2nc3cc(Cl)ccc3s2)c1F` [Example 1, 3-[(5-Chloro-1,3-benzothiazol-2-yl)methoxy]-2,6-difluoro-N′-hydroxybenzenecarboximidamide] the melting point was 169 to 170 °C.

Test system: Staphylococcus aureus ATCC29213
Assay: Minimal Inhibitory Concentration (MIC) testing, broth microdilution or agar dilution (CLSI)
Type: cell-based
Conditions: Staphylococcus aureus ATCC29213; MIC scored as class; read-out: Staphylococcus aureus MICs Activity
Method: Minimal Inhibitory Concentration (MIC) Testing
Compounds of this invention were tested for antimicrobial activity by susceptibility testing in liquid or on solid media. MICs for compounds against each strain were determined by the broth microdilution or agar dilution method according to the guidelines of the Clinical Laboratories and Standards Institute, formerly the National Committee for Clinical Laboratory Standards (Clinical Laboratories and Standards Institute. Methods for Dilution Antimicrobial Susceptibility Tests for Bacteria That Grow Aerobically; Approved Standard—Seventh Edition. Document M7-A7. CLSI, Wayne, Pa., 2006; Clinical Laboratories and Standards Institute.
Activities were scored as ‘A’ if the MIC was less than or equal to 0.125 micrograms/ml, ‘B’ if the MIC was 0.25 to 4 micrograms/ml and ‘C’ if the MIC was greater than 4 micrograms/ml.
For `N/C(=N\O)c1c(F)ccc(OCc2nc3cc(Cl)ccc3s2)c1F` [Example 1, 3-[(5-Chloro-1,3-benzothiazol-2-yl)methoxy]-2,6-difluoro-N′-hydroxybenzenecarboximidamide], the MIC was greater than 4 µg/mL.
With `CO/N=C(\N)c1c(F)ccc(OCc2nc3cc(Cl)ccc3s2)c1F` [Example 2, 3-[(5-Chloro-1,3-benzothiazol-2-yl)methoxy]-2,6-difluoro-N′-methoxybenzenecarboximidamide] the MIC was 0.25 to 4 µg/mL (≈ 0.651 to 10.4 µM).
`N=C(N)c1c(F)ccc(OCc2nc3cc(Cl)ccc3s2)c1F` [Example 3, 3-[(5-Chloro-1,3-benzothiazol-2-yl)methoxy]-2,6-difluorobenzenecarboximidamide] gave an MIC greater than 4 µg/mL.
Compound `N/C(=N\O)c1c(F)ccc(OCc2nc(-c3ccc(Cl)cc3)ns2)c1F` [Example 5, 3-[3-(4-Chlorophenyl)-[1,2,4]thiadiazol-5-ylmethoxy]-2,6-difluoro-N-hydroxybenzamidine] has an MIC of less than 0.125 µg/mL.
`CC(=O)O/N=C(\N)c1c(F)ccc(OCc2nc(-c3ccc(Cl)cc3)ns2)c1F` [Example 6] gave an MIC of 0.25 to 4 µg/mL (≈ 0.57 to 9.11 µM).
Compound `N=C(N)c1c(F)ccc(OCc2nc(-c3ccc(Cl)cc3)ns2)c1F` [Example 7, 3-((3-(4-chlorophenyl)-1,2,4-thiadiazol-5-yl)methoxy)-2,6-difluorobenzimidamide] has an MIC greater than 4 µg/mL.
For `CS(=O)(=O)/N=C(\N)c1c(F)ccc(OCc2nc(-c3ccc(Cl)cc3)ns2)c1F` [Example 8], the MIC was greater than 4 µg/mL.
With `COc1ncc(-c2csc(COc3ccc(F)c(/C(N)=N/O)c3F)n2)s1` [Example 9, 2,6-difluoro-N′-hydroxy-3-((2′-methoxy-4,5′-bithiazol-2-yl)methoxy) benzimidamide] the MIC was less than 0.125 µg/mL.

Same assay, conditions: Staphylococcus aureus, ATCC29213, read-out: Staphylococcus aureus MICs Activity
Compound `O=c1[nH]c(-c2c(F)ccc(OCc3nc(-c4ccc(Cl)cc4)no3)c2F)no1` [Example 4, 3-{3-[3-(4-Chloro-phenyl)-[1,2,4]oxadiazol-5-ylmethoxy]-2,6-difluorophenyl}-4H-[1,2,4]oxadiazol-5-one] has an MIC greater than 4 µg/mL.
